The data set is described as follows: Plasma concentration in po dosed patient after 6 days by HPLC analysis. It is filed as ADME, organism-based. The settings on record: human.

Consider `C[C@@H](c1ncncc1F)[C@](O)(Cn1cncn1)c1ccc(F)cc1F` [VORICONAZOLE], for which the concentration at 144 h was below 120 ng/mL.

The values above are taken from ChEMBL document CHEMBL1649167, “Serial plasma voriconazole concentrations after allogeneic hematopoietic stem cell transplantation” (Antimicrob Agents Chemother, 2009).
